This passage reports IC50 results from patent US12404260B2, “Pyridine rings containing derivatives as MALT1 inhibitors” (Janssen Pharmaceutica NV, priority 2019, dated 2025).

pIC50: −log10 of the molar value.

Assay [1] has as its target T1, full-length MALT1 protein (Strep-MALT1(1-824)-His) (Homo sapiens, UniProt Q9UDY8).
T1 construct: full-length MALT1 protein (Strep-MALT1(1-824)-His) purified from baculovirus-infected insect cells; Strep (N); His (C); made in house; host or cells: baculovirus-infected insect cells
T1 sequence (Q9UDY8 1-824): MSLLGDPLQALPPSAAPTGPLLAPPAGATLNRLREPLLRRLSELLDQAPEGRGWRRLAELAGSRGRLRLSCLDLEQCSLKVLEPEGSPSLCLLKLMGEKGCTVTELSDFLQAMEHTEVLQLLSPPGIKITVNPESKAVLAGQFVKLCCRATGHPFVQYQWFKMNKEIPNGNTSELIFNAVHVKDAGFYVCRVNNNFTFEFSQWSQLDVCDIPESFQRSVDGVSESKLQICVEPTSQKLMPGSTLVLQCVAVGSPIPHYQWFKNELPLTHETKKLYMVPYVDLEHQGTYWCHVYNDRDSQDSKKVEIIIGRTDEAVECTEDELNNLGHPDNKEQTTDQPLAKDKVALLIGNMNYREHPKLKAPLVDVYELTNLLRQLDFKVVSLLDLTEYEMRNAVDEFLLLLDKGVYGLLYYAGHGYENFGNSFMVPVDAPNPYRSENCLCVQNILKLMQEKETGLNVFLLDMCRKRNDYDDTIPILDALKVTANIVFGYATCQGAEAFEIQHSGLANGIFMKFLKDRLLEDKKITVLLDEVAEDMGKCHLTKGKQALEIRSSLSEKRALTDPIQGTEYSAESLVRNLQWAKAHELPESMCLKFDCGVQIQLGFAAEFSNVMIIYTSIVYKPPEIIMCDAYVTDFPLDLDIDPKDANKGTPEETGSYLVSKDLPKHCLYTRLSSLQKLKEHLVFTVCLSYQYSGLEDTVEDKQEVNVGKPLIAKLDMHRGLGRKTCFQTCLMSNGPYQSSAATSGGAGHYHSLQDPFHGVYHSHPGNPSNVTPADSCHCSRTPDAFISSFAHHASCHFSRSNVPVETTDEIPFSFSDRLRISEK
In words: MALT1 Biochemical Protease Assay. The following applies: 10 nM FL MALT1, 200 μM Ac-LRSR-AMC, 50 min pre-incubation, 4 h at RT; read-out: MALT1_Biochemical activity (Ac-LRSR-amc) IC50. The method, then: MALT1 protease activity was assessed in an in vitro assay using a tetrapeptide as substrate and full-length MALT1 protein (Strep-MALT1(1-824)-His) purified from baculovirus-infected insect cells. The tetrapeptide LRSR is coupled to AMC (7-amino-4-methylcoumarin) and provides a quenched, fluorescent substrate for the MALT1 protease (SM Biochemicals). Cleavage of AMC from the Arginine residue results in an increase in coumarin fluorescence measured at 460 nm (excitation 355 nm). The final assay buffer consisted of 10 nM FL MALT1 protein, 200 μM Ac-LRSR-AMC, 50 mM Tris pH 7.5, 0.6 M Citrate, 1 mM DTT, 1 mM EDTA, 0.05% BSA and 1.5% DMSO. Test compounds were spotted at 50 nL in 100% DMSO per well of a black 384-Proxiplate (Perkin Elmer). Test compound concentrations ranged from 30 μM to 0.5 nM using 11 dilution steps (1:3). Background signal was measured from control wells containing assay buffer without enzyme which functions as low control (LC). High control (HC) values were generated using the reaction with enzyme but no compound treatment. Compounds were pre-incubated with MALT1 enzyme for 50 minutes at RT. Substrate was added subsequently and fluorescence was measured in Labsystems fluoroskan at excitation 355 nm and emission 460 nm to determine time 0. The reaction was subsequently incubated for 4 h at RT and fluorescence was measured. For IC50 calculations, timepoint 0 was subtracted from the 4 h timepoint to correct for any potential autofluorescence of the compounds. The enzyme reaction was linear during the 4 h incubation period. Characterization of the substrate Ac-LRSR-AMC determined the Michaelis constant KM at 200 μM.
IC50 values were calculated using the following formula (Z prime should be >0.5): […]
A best-fit curve was fitted by a minimum sum of squares method to the plot of % Controlmin vs. compound concentration. From this an IC50 value (inhibitory concentration causing 50% inhibition) can be obtained. An estimate of the slope of the plot in terms of the Hill coefficient was also obtained.
Used in “Lexis Dose Response Curve Fitting” Version 1.0.

Assay [2] concerns secretion of IL10 by OCI-LY3 ABC-DLBCL cells. In words: Human IL10 Mesoscale assay (OCI-LY3). To be noted: 24 h incubation, IL10 in supernatant. The class given is cell-based. The method, then: (§1) NFKB signaling regulates the secretion of multiple cytokines, including IL6 and IL10. Secretion of the cytokines IL6 and IL10 by OCI-LY3 ABC-DLBCL cells was measured using a mesoscale assay. Inhibition of NFKB signaling by MALT1 inhibitors results in a decrease of IL6/10 secretion.
(§2) OCI-LY3 cells were propagated in RPMI-1640 (Sigma Aldrich) supplemented with 10% fetal bovine serum (HyClone), 1 mM sodium pyruvate (Invitrogen), 2 mM L-glutamine (Sigma Aldrich) and 1% PenStrep (Sigma Aldrich). Cell passage number should not exceed 30. Cells should be kept between 0.5-2.5 million cells per mL during culturing and cells should be supplemented every 2-3 days with fresh 50 μM beta-mercaptoethanol. No beta-mercaptoethanol was used during the mesoscale assay.
(§3) For the Mesoscale assay, 100,000 OCI-LY3 cells were seeded per well into black-colored 96-well plates with clear bottom (Corning #3904) and test compounds were added in 9 dilution steps (1:2) ranging from 15 μM to 58.6 nM (final DMSO concentration 0.3%). DMSO control wells were used to determine the maximum signal (High Control (HC)). Treatment with the BTK inhibitor RN486 in a dose range from 30 nM to […] (9 dilutions of 1:2) served as a positive control for NFKB pathway inhibition and was used to determine the maximum inhibition (Low Control (LC)). Compounds and cells were incubated for 24 h at 37° C. and 5% CO2 (assay volume is 150 μL). After 24 h of incubation 50 μL of the supernatant was transferred to a MSD plate (V-Plex Proinflammation Panel 1 (human) kit, Mesoscale (MSD)) and incubated for 2 h with vigorous shaking (600 rpm) at room temperature. Following incubation, plates were washed 3× with PBS+0.05% Tween-20 and 25 μL detection antibody solution (IL6 & IL10 antibodies in diluent 3 (MSD)) was added per well followed by 2 h of incubation with vigorous shaking (600 rpm) at room temperature. After 3× washes with PBS+0.05% Tween-20, plates were incubated with 150 μL 2× Read Buffer T and read on SECTOR imager.

The test system of assay [3] is secretion of IL6 by OCI-LY3 ABC-DLBCL cells. In words: Human IL6 Mesoscale assay (OCI-LY3). The class given is cell-based. To be noted: 24 h incubation, IL6 in supernatant. The method, then:
as §1, §2, §3

For the molecule `CO[C@H](C)c1c(NC(=O)Nc2cnc(C3CC3)c(Cl)c2)cnc(C)c1Br` [Co. 55], the pIC50 in assay [1] was 6.96; in assay [2], 6.68; in assay [3] it was 6.24.
For `CO[C@H](C)c1c(NC(=O)Nc2cnc(-n3nccn3)c(C(F)(F)F)c2)cnc(C)c1Br` [Co. 58], the values for the pIC50 in assay [1], in assay [2] and in assay [3] were 6.70, 6.52 and 6.12, respectively.
With `CO[C@H](C)c1c(Cl)cncc1NC(=O)Nc1cnc(-n2nccn2)c(Cl)c1` [Co. 23], the pIC50 in assay [1] was 6.96; in assay [2] (Homo sapiens), 6.92; in assay [3] (Homo sapiens), 6.74.
Turning to `COC(C)c1c(NC(=O)Nc2cnc(-n3nccn3)c(Cl)c2)cnc(C2CC2)c1Br` (stereo not shown) [Co. 47], the pIC50 in assay [1] is 5.06.
Regarding `CO[C@@H](C)c1c(NC(=O)Nc2cnc(-n3nccn3)c(C(F)(F)F)c2)cnc(C(F)F)c1Br` (single isomer, unassigned) [Co. 147], the figures for the pIC50 in assay [1], in assay [2] (Homo sapiens) and in assay [3] (Homo sapiens) were 6.25, 6.18 and 6.07, respectively.
`CO[C@@H](C)c1c(NC(=O)Nc2cnc(OC(F)F)c(Cl)c2)cnc(C)c1C#N` [Co. 70]: the results for the pIC50 in assay [1], in assay [2] and in assay [3] were 7.30, 7.52 and 7.22, respectively.
Turning to `CO[C@H](C)c1c(NC(=O)Nc2cnc(-n3nccn3)c(C(F)(F)F)c2)cnc(C(F)F)c1Br` (single isomer, unassigned) [Co. 144], the results for the pIC50 in assay [1], in assay [2] (Homo sapiens) and in assay [3] (Homo sapiens) were 7.40, approximately 7.35 and 7.22, respectively.
On to `COc1nc(-n2nccn2)c(Cl)cc1NC(=O)Nc1cnc(C)c(C#N)c1[C@H](C)OC` [Co. 80], for which the results for the pIC50 in assay [1], in assay [2] and in assay [3] were 7.30, 7.05 and 6.82, respectively.
Regarding `COC(C)c1c(NC(=O)Nc2cnc(-n3nccn3)c(Cl)c2)cncc1C(C)C` (racemic) [Co. 30], the pIC50 in assay [1] is 5.67.
Take `COC(C)c1c(NC(=O)Nc2ccnc(C(F)(F)F)c2)cnc(C)c1Cl` (single isomer, unassigned) [Co. 65]: the pIC50 in assay [1] is 4.82; in assay [2], 5.18; in assay [3], less than 4.82.
In the case of `COc1c(C)ncc(NC(=O)Nc2cnc(-n3nccn3)c(Cl)c2)c1[C@H](C)OC` [Co. 43], the figures for the pIC50 in assay [1], in assay [2] and in assay [3] were 4.92, less than 4.82 and less than 4.82, respectively.
On to `CO[C@@H](C)c1c(O)cncc1NC(=O)Nc1cnc(-n2nccn2)c(Cl)c1` [Co. 5], for which, in assay [1], the pIC50 is 5.58.
Consider `COC(C)c1c(NC(=O)Nc2cnc(-n3nccn3)c(Cl)c2)cncc1C1COC1` (racemic) [Co. 31], for which, in assay [1], the pIC50 was 5.91.
Take `CO[C@@H](C)c1c(NC(=O)Nc2cnc(-n3ncc([C@@H](C)O)n3)c(Cl)c2)cnc(C)c1C#N` [Co. 115]: the pIC50 was 7.22 in assay [1], 7.00 in assay [2] and 6.64 in assay [3].
On to `CO[C@@H](C)c1c(NC(=O)Nc2cnc(-n3nccn3)c(Cl)c2)cncc1OCc1ccccc1` [Co. 2], for which, in assay [1], the pIC50 was 5.62.
Still for that read-out and setting: in the case of `COC(C)c1c(NC(=O)Nc2cnc(-n3nccn3)c(Cl)c2)cncc1OCC(N)=O` (stereo not shown) [Co. 16] it was 5.85.
In the case of `COc1ncc(NC(=O)Nc2cnc(C)c(Cl)c2[C@H](C)OC)cc1C#N` [Co. 76], the negative logarithm of the IC50 (pIC50) in assay [1] was 6.80; in assay [2], 6.96; in assay [3] it was 6.89.
Take `COc1cncc(NC(=O)Nc2cc(C(F)(F)F)c(-n3nccn3)nc2OC)c1[C@H](C)OC` (single isomer, unassigned) [Co. 137]: the pIC50 was 7.40 in assay [1], 7.10 in assay [2] (Homo sapiens) and 7.10 in assay [3] (Homo sapiens).
Regarding `COC(C)c1c(NC(=O)Nc2cnc(-n3nccn3)c(Cl)c2)cncc1OC1CC1` (racemic) [Co. 13], the pIC50 in assay [1] is 6.07.
On to `CO[C@@H](C)c1c(NC(=O)Nc2cnc(-n3nccn3)c(Cl)c2)cncc1OC(C)C` [Co. 10], for which the pIC50 in assay [1] is 5.52.
Consider `COC(C)c1c(NC(=O)Nc2cnc(-n3nccn3)c(Cl)c2)cncc1OCC1CC1` (stereo not shown) [Co. 11], for which the pIC50 in assay [1] was 5.76.
As to `CO[C@@H](C)c1c(NC(=O)Nc2cnc(OC(F)F)c(Cl)c2)cnc(N)c1Cl` (single isomer, unassigned) [Co. 135], the pIC50 in assay [1] is 5.70.
For the molecule `COC(C)c1c(O)cncc1NC(=O)Nc1cnc(-n2nccn2)c(Cl)c1` (stereo not shown) [Co. 6], the pIC50 in assay [1] was 4.62.
As for `COC(C)c1c(F)cncc1NC(=O)Nc1cnc(-n2nccn2)c(Cl)c1` (racemic) [Co. 21], in assay [1], the pIC50 was 5.58.
Take `COc1cncc(NC(=O)Nc2cnc(-n3nccn3)c(Cl)c2)c1C(C)OC` (stereo not shown) [Co. 7]: in assay [1], the pIC50 is 6.77.
On the same count and under the same terms, in the case of `CNc1cncc(NC(=O)Nc2cnc(-n3nccn3)c(Cl)c2)c1C(C)OC` (racemic) [Co. 33] it was 5.74; in that of `COC(C)c1c(Br)cncc1NC(=O)Nc1cnc(-n2nccn2)c(Cl)c1` (single isomer, unassigned) [Co. 19], 5.56.
Turning to `COC(C)c1c(NC(=O)Nc2cnc(-n3nccn3)c(Cl)c2)cncc1NC(C)C` (stereo not shown) [Co. 32], the pIC50 in assay [1] is 5.55.
As for `COC(C)c1c(Br)cnc(C)c1NC(=O)Nc1cnc(-n2nccn2)c(Cl)c1` (racemic) [Co. 50], in assay [1], the pIC50 is 5.13.
As to `CO[C@H](C)c1c(NC(=O)Nc2cnc(OC(F)F)c(Cl)c2)cnc(C)c1C#N` [Co. 71], the pIC50 is 6.82 in assay [2] and 6.49 in assay [3].
On to `COC(C)c1c(Br)cnc(C2CC2)c1NC(=O)Nc1cnc(-n2nccn2)c(Cl)c1` (stereo not shown) [Co. 48], for which the negative logarithm of the IC50 (pIC50) in assay [1] is less than 4.52.
`COC(C)c1c(NC(=O)Nc2cnc(-n3nccn3)c(Cl)c2)cncc1OC1COC1` (stereo not shown) [Co. 12]: in assay [1], the pIC50 is 5.77.
With `COC(C)c1c(NC(=O)Nc2cnc(-n3nccn3)c(Cl)c2)cncc1OCc1ccccc1` (stereo not shown) [Co. 3], the pIC50 in assay [1] is less than 4.52.

By pIC50 is commonly meant the negative decadic logarithm of the IC50, by convention in mol/L.
